According to patent US20060229242A1, “Composition comprising a pulmonary surfactant and a pde2 inhibitor” (Altana Phazma AG, priority 2003, published 2006):

Tested on: Male Wistar rats
Assay: Rat lung lavage experiment: arterial blood oxygenation after repeated saline lung lavage
Type: in vivo
Settings: rat lung lavage model; intratracheal, 1.2 mL, 60 min after lavage; PODPO 100 nM alone, or VENTICUTE 12.5 mgPL/kg with PODPO 100 nM (p<0.05 to p<0.001 versus VENTICUTE alone); up to 150 min
Procedure: (§1) Male Wistar rats were prepared according to Example 5 and lungs were ravaged 5-9 times with NaCl 0.9% (=>PaO2˜50-100 mmHg). After 60 min NaCl 0.9% (open circles), VENTICUTE 12.5 mgPL/kg (filled squares, PL=Phospholipids), PODPO (9-(6-Phenyl-2-oxohex-3-yl)-2-(3,4-dimethoxybenzyl)-purin-6-one) 100 nM (stars), or VENTICUTE 12.5 mgPL/kg in combination with PODPO 100 nM (open squares) was administered intratracheally (administration volume 1.2 mL). Arterial blood oxygenation (PaO2) was determined every 30 min up to 150 min after drug administration (t=210 min). […] Data are shown as mean±SEM. * p<0.05, *** p<0.001 versus VENTICUTE 12.5 mgPL/kg.
as §1, with “rats (220-250 g)” for “rats”, “anaesthetized, catheterised” for “prepared according”, “withdraw arterial blood,” for “Example 5”, “and ventilated with pure oxygen (=>PaO2˜500-550 mmHg). 30 min later” for “and”, “lavaged” for “ravaged”

COc1ccc(Cc2nc3c(ncn3C(CCCc3ccccc3)C(C)=O)c(=O)[nH]2)cc1OC (stereo not shown) [PODPO, 9-(6-Phenyl-2-oxohex-3-yl)-2-(3,4-dimethoxybenzyl)-purin-6-one]
Influence on arterial blood oxygenation (PaO2), in words: no influence on oxygenation
